In US6737383B1, “Herbicidal oxadiazolidines” (priority 1999, dated 2004):

Legend:
purple nutsedge = test: Test B pre/postemergence purple nutsedge; format: in vivo, Cyperus rotundus
Procedure, shortened: (§1)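 Herbicidal effect was estimated by eye on a ten-point control scale after plants spent twelve to sixteen days in a greenhouse following soil or foliar treatment. Foliar sprays targeted plants at one to four leaves; all doses were formulated in a non-phytotoxic solvent with surfactant.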

morningglory = test: Test B pre/postemergence morningglory; format: in vivo, Ipomoea hederacea
Procedure, shortened: as §1

soybean = test: Test B pre/postemergence soybean; format: in vivo, Glycine max
Procedure, shortened: as §1

giant foxtail = test: Test B pre/postemergence giant foxtail; format: in vivo, Setaria faberii
Procedure, shortened: as §1

sugar beet = test: Test B pre/postemergence sugar beet; format: in vivo, Beta vulgaris
Procedure, shortened: as §1

duck salad = test: Test B flood test duck salad; format: in vivo, Heteranthera limosa
Procedure, shortened: (§2)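 Plants were grown to the 2-leaf stage before treatment with test chemical, then held in a greenhouse for twelve to sixteen days. Injury was visually rated against untreated controls on a 0–10 scale, where 0 is no effect and 10 is complete control.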

corn = test: Test B pre/postemergence corn; format: in vivo, Zea mays
Procedure, shortened: as §1

wheat = test: Test B pre/postemergence wheat; format: in vivo, Triticum aestivum
Procedure, shortened: as §1

velvetleaf = test: Test B pre/postemergence velvetleaf; format: in vivo, Abutilon theophrasti
Procedure, shortened: as §1

rape = test: Test B pre/postemergence rape; format: in vivo, Brassica napus; settings: for Rape plant response rating: Rate 62 g/ha
Procedure, shortened: as §1

bamyardgrass = test: Test B flood test barnyardgrass; format: in vivo, Echinochloa crus-galli
Procedure, shortened: as §2

blackgrass = test: Test B pre/postemergence blackgrass; format: in vivo, Alopecurus myosuroides
Procedure, shortened: as §1

surinam grass = test: Test B pre/postemergence surinam grass; format: in vivo, Brachiaria decumbens
Procedure, shortened: as §1

rice = test: Test B flood test rice; format: in vivo, Oryza sativa
Procedure, shortened: as §2

wild oat = test: Test B pre/postemergence wild oat; format: in vivo, Avena fatua
Procedure, shortened: as §1

bedstraw = test: Test B pre/postemergence bedstraw; format: in vivo, Galium aparine; settings: for Bedstraw plant response rating: Rate 62 g/ha
Procedure, shortened: as §1

cocklebur = test: Test B pre/postemergence cocklebur; format: in vivo, Xanthium strumarium
Procedure, shortened: as §1

crabgrass = test: Test B pre/postemergence crabgrass; format: in vivo, Digitaria sanguinalis
Procedure, shortened: as §1

smallflower flatsedge = test: Test B flood test smallflower flatsedge; format: in vivo, Cyperus difformis
Procedure, shortened: as §2

pigweed = test: Test B pre/postemergence pigweed; format: in vivo, Amaranthus retroflexus
Procedure, shortened: as §1

[1] = Postemergence, Rate 125 g/ha, scale 0 to 10, 0 is no effect, 10 is complete control
[2] = Preemergence, Rate 62 g/ha, scale of 0 to 10 where 0 is no effect and 10 is complete control
[3] = Preemergence, Rate 250 g/ha, scale of 0 to 10 where 0 is no effect and 10 is complete control
[4] = Rate 62 g/ha, Postemergence, scale 0 to 10 (0 no effect, 10 complete control)
[5] = Rate 500 g/ha, Postemergence, scale 0 to 10, 0 no effect, 10 complete control
[6] = Preemergence, Rate 500 g/ha, scale of 0 to 10 where 0 is no effect and 10 is complete control
[7] = Rate 62 g/ha, headed Pre-emergence (flood test species), scale 0 to 10 (0 no effect, 10 complete control)
[8] = Rate 125 g/ha, Pre-emergence, flood test species, scale 0 to 10 where 0 is no effect and 10 is complete control
[9] = Rate 250 g/ha, Pre-emergence, flood-test species, scale 0 to 10, 0 is no effect, 10 is complete control
[10] = Rate 500 g/ha, Pre-emergence, flood test species, scale 0 to 10 (0 no effect, 10 complete control)
[11] = Preemergence, scale of 0 to 10 where 0 is no effect and 10 is complete control
[12] = Postemergence, scale 0 to 10 (0 no effect, 10 complete control)
[13] = Rate 250 g/ha, Postemergence, scale of 0 to 10 where 0 is no effect and 10 is complete control

CC(C)N(C(=O)n1oc(=O)n(-c2ccc3ccccc3c2)c1=O)c1ccc(F)cc1 [Compound 329]
Plant response rating, Nutsedge (purple nutsedge; [1]): 0
Nutsedge plant response rating (purple nutsedge; [2]): 0
Nutsedge plant response rating (purple nutsedge; [3]): 0
Nutsedge plant response rating (purple nutsedge; [4]): 0
Plant response rating, Nutsedge (purple nutsedge; [5]): 0
Plant response rating, Morningglory (morningglory; [1]): 0
Morningglory plant response rating (morningglory; [2]): 0
Morningglory plant response rating (0 to 10 scale) (morningglory; Preemergence, Rate 125 g/ha): 0
Morningglory plant response rating (morningglory; [3]): 0
Morningglory plant response rating (morningglory; [6]): 0
Morningglory plant response rating (morningglory; [4]): 0
Plant response rating, Morningglory (morningglory; [5]): 0
Plant response rating, Soybean (soybean; [1]): 1
Soybean plant response rating (soybean; [2]): 0
Soybean plant response rating (0 to 10 scale) (soybean; Preemergence, Rate 125 g/ha): 0
Soybean plant response rating (soybean; [3]): 0
Soybean plant response rating (soybean; [6]): 0
Soybean plant response rating (soybean; [4]): 1
Plant response rating, Soybean (soybean; [5]): 2
Plant response rating, Giant foxtail (giant foxtail; [1]): 0
Giant foxtail plant response rating (giant foxtail; [2]): 0
Giant foxtail plant response rating (0 to 10 scale) (giant foxtail; Preemergence, Rate 125 g/ha): 0
Giant foxtail plant response rating (giant foxtail; [3]): 0
Giant foxtail plant response rating (giant foxtail; [6]): 3
Giant foxtail plant response rating (giant foxtail; [4]): 0
Plant response rating, Giant foxtail (giant foxtail; [5]): 0
Plant response rating, Sugarbeets (sugar beet; [1]): 0
Sugarbeets plant response rating (sugar beet; [2]): 0
Sugarbeets plant response rating (0 to 10 scale) (sugar beet; Preemergence, Rate 125 g/ha): 0
Sugarbeets plant response rating (sugar beet; [3]): 0
Sugarbeets plant response rating (sugar beet; [6]): 0
Sugarbeets plant response rating (sugar beet; [4]): 0
Plant response rating, Sugarbeets (sugar beet; [5]): 0
Ducksalad plant response rating (duck salad; [7]): 0
Ducksalad plant response rating (duck salad; [8]): 0
Ducksalad plant response rating (duck salad; [9]): 0
Ducksalad plant response rating (duck salad; [10]): 0
Plant response rating, Corn (corn; [1]): 0
Corn plant response rating (corn; [2]): 0
Corn plant response rating (0 to 10 scale) (corn; Preemergence, Rate 125 g/ha): 0
Corn plant response rating (corn; [3]): 0
Corn plant response rating (corn; [6]): 0
Corn plant response rating (corn; [4]): 0
Plant response rating, Corn (corn; [5]): 0
Plant response rating, Wheat (wheat; [1]): 0
Wheat plant response rating (wheat; [2]): 0
Wheat plant response rating (0 to 10 scale) (wheat; Preemergence, Rate 125 g/ha): 0
Wheat plant response rating (wheat; [3]): 0
Wheat plant response rating (wheat; [6]): 0
Wheat plant response rating (wheat; [4]): 0
Plant response rating, Wheat (wheat; [5]): 0
Plant response rating, Velvetleaf (velvetleaf; [1]): 0
Velvetleaf plant response rating (velvetleaf; [2]): 0
Velvetleaf plant response rating (0 to 10 scale) (velvetleaf; Preemergence, Rate 125 g/ha): 0
Velvetleaf plant response rating (velvetleaf; [3]): 0
Velvetleaf plant response rating (velvetleaf; [6]): 0
Velvetleaf plant response rating (velvetleaf; [4]): 0
Plant response rating, Velvetleaf (velvetleaf; [5]): 0
Plant response rating, Rape (rape; [1]): 0
Rape plant response rating (rape; [11]): 0
Rape plant response rating (0 to 10 scale) (rape; Preemergence, Rate 125 g/ha): 0
Rape plant response rating (rape; [12]): 0
Plant response rating, Rape (rape; [5]): 0
Barnyardgrass plant response rating (bamyardgrass; [7]): 0
Barnyardgrass plant response rating (bamyardgrass; [8]): 0
Barnyardgrass plant response rating (bamyardgrass; [9]): 0
Barnyardgrass plant response rating (bamyardgrass; [10]): 0
Plant response rating, Blackgrass (blackgrass; [1]): 0
Blackgrass plant response rating (blackgrass; [2]): 0
Blackgrass plant response rating (0 to 10 scale) (blackgrass; Preemergence, Rate 125 g/ha): 0
Blackgrass plant response rating (blackgrass; [3]): 0
Blackgrass plant response rating (blackgrass; [6]): 0
Blackgrass plant response rating (blackgrass; [4]): 0
Plant response rating, Blackgrass (blackgrass; [13]): 0
Plant response rating, Blackgrass (blackgrass; [5]): 0
Plant response rating, B. signalgrass (surinam grass; [1]): 0
B. signalgrass plant response rating (surinam grass; [2]): 0
B. signalgrass plant response rating (0 to 10 scale, 0 is no effect, 10 is complete control) (surinam grass; Preemergence, Rate 125 g/ha): 0
B. signalgrass plant response rating (surinam grass; [3]): 0
B. signalgrass plant response rating (surinam grass; [6]): 0
B. signalgrass plant response rating (surinam grass; [4]): 0
Plant response rating, B. signalgrass (surinam grass; [13]): 0
Plant response rating, B. signalgrass (surinam grass; [5]): 0
Rice plant response rating (rice; [7]): 0
Rice plant response rating (rice; [8]): 0
Rice plant response rating (rice; [9]): 0
Rice plant response rating (rice; [10]): 0
Plant response rating, Wild oats (wild oat; [1]): 0
Wild oats plant response rating (wild oat; [2]): 0
Wild oats plant response rating (0 to 10 scale) (wild oat; Preemergence, Rate 125 g/ha): 0
Wild oats plant response rating (wild oat; [3]): 0
Wild oats plant response rating (wild oat; [6]): 0
Wild oats plant response rating (wild oat; [4]): 0
Plant response rating, Wild oats (wild oat; [5]): 0
Plant response rating, Bedstraw (bedstraw; [1]): 0
Bedstraw plant response rating (bedstraw; [11]): 0
Bedstraw plant response rating (0 to 10 scale) (bedstraw; Preemergence, Rate 125 g/ha): 0
Bedstraw plant response rating (bedstraw; [12]): 0
Plant response rating, Cocklebur (cocklebur; [1]): 0
Cocklebur plant response rating (cocklebur; [2]): 0
Cocklebur plant response rating (0 to 10 scale) (cocklebur; Preemergence, Rate 125 g/ha): 0
Cocklebur plant response rating (cocklebur; [3]): 0
Cocklebur plant response rating (cocklebur; [6]): 0
Cocklebur plant response rating (cocklebur; [4]): 0
Plant response rating, Cocklebur (cocklebur; [5]): 4
Plant response rating, Crabgrass (crabgrass; [1]): 0
Crabgrass plant response rating (crabgrass; [2]): 0
Crabgrass plant response rating (0 to 10 scale) (crabgrass; Preemergence, Rate 125 g/ha): 0
Crabgrass plant response rating (crabgrass; [3]): 0
Crabgrass plant response rating (crabgrass; [6]): 3
Crabgrass plant response rating (crabgrass; [4]): 0
Plant response rating, Crabgrass (crabgrass; [5]): 0
S. Flatsedge plant response rating (smallflower flatsedge; [7]): 0
S. Flatsedge plant response rating (smallflower flatsedge; [8]): 0
S. Flatsedge plant response rating (smallflower flatsedge; [9]): 0
S. Flatsedge plant response rating (smallflower flatsedge; [10]): 0
Plant response rating, Redroot pigweed (pigweed; [1]): 0
Redroot pigweed plant response rating (pigweed; [2]): 0
Redroot pigweed plant response rating (0 to 10 scale) (pigweed; Preemergence, Rate 125 g/ha): 0
Redroot pigweed plant response rating (pigweed; [3]): 0
Redroot pigweed plant response rating (pigweed; [6]): 0
Redroot pigweed plant response rating (pigweed; [4]): 0
Plant response rating, Redroot pigweed (pigweed; [5]): 0
